Source: patent publication US6562837B1, “Use of tetrahydroisoquinoline compounds for the treatment of septicemia” (Korea Institute of Science & Technology, priority 1998, dated 2003)

Tested on: iNOS mRNA in macrophages (RAW 264.7 cells)
Test: Suppression of LPS- and IFN-γ-induced iNOS mRNA expression in macrophage (Northern blot)
Format: cell-based
Conditions: LPS 100 ng/ml + IFN-γ 10 U/ml, 18 hours, compound 1, 10 and 100 μM, FIG. 2
Experimental: In a DMEM medium supplemented with thermally treated 10% fetal calf serum, penicillin (100 U/ml) and streptomycin ([…]), macrophages (RAW 264.7 cells) were cultured to be confluent in a CO2 incubator. After being transferred to a serum-free DMEM medium, the cells were cultured for additional 24 hours and then, further for 18 hours in the presence of LPS (100 ng/ml) and interferon-γ (hereinafter referred to as “IFN-γ”; 10 U/ml), and/or the compound of Chemical Formula 2 (0, 1, 10, and 100:μM). Using a trizol solution, the total RNA was extracted from the cultured macrophages. After quantification in a spectrophotometer, the total RNA obtained was electrophoresed on a formamide-formaldehyde agarose gel and transferred to a nylon membrane. Thereafter, the total RNA on the nylon membrane was hybridized with cDNA probes for iNOS to determine the expression level of iNOS mRNA, in which the cDNA of iNOS was labeled with ^32P-dCTP by a random-primer method. For quantification, an x-ray film was exposed to the radioactive irradiation from the nylon membrane and developed to compare the radioactivity level of desired objects with those of GAPDH. […]

## Oc1cc2c(cc1O)C(Cc1ccc3ccccc3c1)NCC2 (stereo not drawn) [Compound 2, 1-β-naphthylmethyl-6,7-dihydroxy-1,2,3,4-tetrahydroisoquinoline]
  LPS/IFN-γ-induced iNOS mRNA expression in macrophages: inhibits the LPS/IFN-γ-induced iNOS mRNA expression in a concentration-dependent manner
